Source: paper PMC6727405, “Variation in the metabolites and α-glucosidase inhibitory activity of Cosmos caudatus at different growth stages” (BMC Complementary and Alternative Medicine, 2019)

Target: T1, α-glucosidase type 1 from S. cerevisiae (Sigma G5003)
T1 construct: gene MAL12; commercial enzyme preparation from yeast (Sigma-Aldrich)
Test: 4-nitrophenyl alpha-D-glucopyranoside hydrolysis, absorbance […] nm
Assay type: biochemical, Saccharomyces cerevisiae
Conditions: PNPG substrate; phosphate buffer pH 6.5; room temperature; 5 min preincubation; positive control

α-glucosidase inhibitory activity, IC50 (μg mL^- 1): 110.50 ± 4.30 µg/mL
SMILES: O=c1c(O)c(-c2ccc(O)c(O)c2)oc2cc(O)cc(O)c12 [Quercetin]
